Bridge positions count the residues as written; N and C are the ends. Square brackets hold non-standard residues; d marks the D form. Peptide text beside a SMILES is read from it. * marks the point of attachment. ξ: configuration not given here. Phe(4-COOH) = N[C@@H](Cc1ccc(C(=O)O)cc1)C(=O)O; Bip = N[C@@H](Cc1ccc(-c2ccccc2)cc1)C(=O)O; Phe(3-CN) = N#Cc1cccc(C[C@H](N)C(=O)O)c1; Phe(3-Me) = Cc1cccc(C[C@H](N)C(=O)O)c1; Val(3-OH) = CC(C)(O)[C@H](N)C(=O)O; 4Pal = N[C@@H](Cc1ccncc1)C(=O)O; Cha = N[C@@H](CC1CCCCC1)C(=O)O; Cit = NC(=O)NCCC[C@H](N)C(=O)O; Ile(3ξ) = CCC(C)[C@H](N)C(=O)O; Thr(3ξ) = CC(O)[C@H](N)C(=O)O; dOrn = NCCC[C@@H](N)C(=O)O; Carboxymethyl = O=C(O)C*; NMeA = CN[C@@H](C)C(=O)O; Orn = NCCC[C@H](N)C(=O)O; Dab = NCC[C@H](N)C(=O)O; Dap = NC[C@H](N)C(=O)O

For orientation: IC50 means the concentration that gives 50% inhibition.

T1 sequence (Q15116 25-288): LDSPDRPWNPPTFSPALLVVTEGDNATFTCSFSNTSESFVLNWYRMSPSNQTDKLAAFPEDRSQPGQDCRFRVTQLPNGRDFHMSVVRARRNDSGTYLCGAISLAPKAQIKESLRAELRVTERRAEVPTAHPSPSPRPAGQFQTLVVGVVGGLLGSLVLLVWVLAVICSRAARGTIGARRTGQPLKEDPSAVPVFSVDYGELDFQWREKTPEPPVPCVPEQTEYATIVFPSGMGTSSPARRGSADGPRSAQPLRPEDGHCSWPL

This test has as its target T1, PE-labeled human PD-L1-Ig binding to Jurkat cell line over-expressing human PD-1 (Jurkat-PD-1) (Homo sapiens, UniProt Q15116).
T1 construct: expressed in transfected cells; host or cells: Jurkat
Nature of the test: Jurkat-PD-1 Cell Binding High-Content Screening Assay (CBA): Method 1. To be noted: Jurkat-hPD-1 cells, PE-labeled PD-L1-Ig 20 nM final; read-out: Jurkat HPDL1 PD1 IC50 (uM) (Method 1).
With `CC(C)C[C@@H]1NC(=O)[C@H](CCCNC(=N)N)NC(=O)[C@@H](CC(C)C)NC(=O)[C@H](C)N(C)C(=O)[C@H](CCCNC(=N)N)NC(=O)[C@H](Cc2ccc(-c3ccccc3)cc2)NC(=O)[C@H](C(C)C)NC(=O)[C@H](Cc2cccc(C#N)c2)NC(=O)[C@H](CC(=O)O)NC(=O)[C@H](Cc2ccc(O)cc2)NC(=O)[C@H](CC(N)=O)NC(=O)CSC[C@@H](C(=O)N[C@@H](C)C(N)=O)NC(=O)[C@H]([C@@H](C)O)NC(=O)[C@H](C(C)C)NC1=O` [Compound 1196] ({CH2CO}-NYD[Phe(3-CN)]V[Bip]R[NMeA][dL]RLVTCA-NH2; thioether N-14), the IC50 worked out at 0.24 µM.
As to `CCC(C)[C@@H]1NC(=O)[C@H](Cc2ccc(-c3ccccc3)cc2)NC(=O)[C@H](C(C)C)NC(=O)[C@H](Cc2cccc(C)c2)NC(=O)[C@H](CC(=O)O)NC(=O)[C@H](Cc2cccc(C)c2)NC(=O)[C@H](Cc2ccncc2)NC(=O)CSC[C@@H](C(=O)N[C@@H](CO)C(=O)O)NC(=O)[C@H](CO)NC(=O)[C@H](C(C)C)NC(=O)[C@H](CC2CCCCC2)NC(=O)[C@H](CCN)NC(=O)[C@@H](CC(C)C)NC(=O)[C@H](C)N(C)C1=O` (stereo partly drawn) [Compound 2235] ({CH2CO}-[4Pal][Phe(3-Me)]D[Phe(3-Me)]V[Bip][Ile(3ξ)][NMeA][dL][Dab][Cha]VSCS-OH; thioether N-14), the half-inhibitory concentration (IC50) was found to be 0.3 µM.
The result for `CC(C)C[C@@H]1NC(=O)[C@H](CCCNC(=N)N)NC(=O)[C@@H](CC(C)C)NC(=O)[C@H](C)N(C)C(=O)[C@H](CCCNC(=N)N)NC(=O)[C@H](Cc2ccc(-c3ccccc3)cc2)NC(=O)[C@H](C(C)C)NC(=O)[C@H](Cc2c[nH]c3ccccc23)NC(=O)[C@H](CC(=O)O)NC(=O)[C@H](Cc2ccc(O)cc2)NC(=O)[C@H](Cc2cnc[nH]2)NC(=O)CSC[C@@H](C(=O)N[C@@H](C)C(N)=O)NC(=O)[C@H]([C@@H](C)O)NC(=O)[C@H](C(C)C)NC1=O` [Compound 1047] ({CH2CO}-HYDWV[Bip]R[NMeA][dL]RLVTCA-NH2; thioether N-14) reads 0.07 µM; that for `CCC(C)[C@@H]1NC(=O)[C@H](Cc2ccc(-c3ccccc3)cc2)NC(=O)[C@H](C(C)C)NC(=O)[C@H](Cc2cccc(C)c2)NC(=O)[C@H](CC(=O)O)NC(=O)[C@H](Cc2ccc(OCC(=O)O)cc2)NC(=O)[C@H](Cc2ccncc2)NC(=O)CSC[C@@H](C(=O)N[C@@H](CCCN)C(N)=O)NC(=O)[C@H](C(C)O)NC(=O)[C@H](C(C)(C)O)NC(=O)[C@H](CC2CCCCC2)NC(=O)[C@H](CCN)NC(=O)[C@@H](CC(C)C)NC(=O)[C@H](C)N(C)C1=O` (stereo partly drawn) [Compound 2145] ({CH2CO}-[4Pal]Y(Carboxymethyl)D[Phe(3-Me)]V[Bip][Ile(3ξ)][NMeA][dL][Dab][Cha][Val(3-OH)][Thr(3ξ)]C[Orn]-NH2; thioether N-14), 0.01 µM.
Take `CCC(C)[C@@H]1NC(=O)[C@H](Cc2ccc(-c3ccccc3)cc2)NC(=O)[C@H](CC(C)C)NC(=O)[C@H](Cc2c[nH]c3ccccc23)NC(=O)[C@H](CC(=O)O)NC(=O)[C@H](Cc2ccc(C(=O)O)cc2)NC(=O)[C@H](Cc2ccc(OCC(=O)O)cc2)NC(=O)CSC[C@@H](C(=O)N[C@@H](CO)C(N)=O)NC(=O)[C@H]([C@@H](C)O)NC(=O)[C@H](C(C)C)NC(=O)[C@H](CC2CCCCC2)NC(=O)[C@H](CCN)NC(=O)[C@@H](CC(C)C)NC(=O)[C@H](C)N(C)C1=O` (stereo partly drawn) [Compound 1928] ({CH2CO}-Y(Carboxymethyl)[Phe(4-COOH)]DWL[Bip][Ile(3ξ)][NMeA][dL][Dab][Cha]VTCS-NH2; thioether N-14): the IC50 came to 0.02 µM.
The result for `Cc1cccc(C[C@@H]2NC(=O)[C@H](CC(=O)O)NC(=O)[C@H](Cc3ccc(OCC(=O)O)cc3)NC(=O)[C@H](C(C)C)NC(=O)CSC[C@@H](C(=O)N[C@@H](CN)C(N)=O)NC(=O)[C@H](C(C)O)NC(=O)[C@H](C(C)(C)O)NC(=O)[C@H](CC3CCCCC3)NC(=O)[C@H](CCN)NC(=O)[C@@H](CC(C)C)NC(=O)[C@H](C)N(C)C(=O)[C@H](CCCNC(N)=O)NC(=O)[C@H](Cc3ccc(-c4ccccc4)cc3)NC(=O)[C@H](Cc3ccc(OCC(=O)O)cc3)NC2=O)c1` (stereo partly drawn) [Compound 2167] ({CH2CO}-VY(Carboxymethyl)D[Phe(3-Me)]Y(Carboxymethyl)[Bip][Cit][NMeA][dL][Dab][Cha][Val(3-OH)][Thr(3ξ)]C[Dap]-NH2; thioether N-14) reads 0.05 µM.
Regarding `CC(C)C[C@@H]1NC(=O)[C@H](Cc2c[nH]c3ccccc23)NC(=O)[C@H](CC(=O)O)NC(=O)[C@H](Cc2ccc(O)cc2)NC(=O)[C@H](Cc2ccccc2)NC(=O)CSC[C@@H](C(=O)N[C@@H](C)C(N)=O)NC(=O)[C@H](CO)NC(=O)[C@H](C(C)C)NC(=O)[C@H](CC(C)C)NC(=O)[C@H](CC(N)=O)NC(=O)[C@@H](CCCN)NC(=O)[C@H](C)N(C)C(=O)[C@H](C(C)C)NC(=O)[C@H](Cc2ccc(-c3ccccc3)cc2)NC1=O` [Compound 1802] ({CH2CO}-FYDWL[Bip]V[NMeA][dOrn]NLVSCA-NH2; thioether N-14), the IC50 is 0.19 µM.
Take `CC(C)C[C@@H]1NC(=O)[C@H](Cc2c[nH]c3ccccc23)NC(=O)[C@H](CC(=O)O)NC(=O)[C@H](Cc2ccc(O)cc2)NC(=O)[C@H](CC(N)=O)NC(=O)CSC[C@@H](C(=O)N[C@@H](C)C(N)=O)NC(=O)[C@H](CO)NC(=O)[C@H](C(C)C)NC(=O)[C@H](CC(C)C)NC(=O)[C@H](CCN)NC(=O)[C@@H](C)NC(=O)[C@H](C)N(C)C(=O)[C@H](CCCNC(=N)N)NC(=O)[C@H](Cc2ccc(-c3ccccc3)cc2)NC1=O` [Compound 1758] ({CH2CO}-NYDWL[Bip]R[NMeA][dA][Dab]LVSCA-NH2; thioether N-14): the IC50 stood at 0.03 µM.
The result for `CC(=O)NCCCC[C@@H]1NC(=O)[C@H](C(C)C)NC(=O)[C@H](CC2CCCCC2)NC(=O)[C@H](CCN)NC(=O)[C@@H](CC(C)C)NC(=O)[C@H](C)N(C)C(=O)[C@H](CCC(N)=O)NC(=O)[C@H](Cc2ccc(-c3ccccc3)cc2)NC(=O)[C@H](C(C)C)NC(=O)[C@H](Cc2cccc(C)c2)NC(=O)[C@H](CC(=O)O)NC(=O)[C@H](Cc2ccc(OCC(=O)O)cc2)NC(=O)[C@H](Cc2ccc(OCC(=O)O)cc2)NC(=O)CSC[C@@H](C(=O)N[C@@H](CCN)C(N)=O)NC1=O` [Compound 2129] ({CH2CO}-Y(Carboxymethyl)Y(Carboxymethyl)D[Phe(3-Me)]V[Bip]Q[NMeA][dL][Dab][Cha]VK(Ac)C[Dab]-NH2; thioether N-14) reads 0.01 µM.
The result for `CC(C)C[C@@H]1NC(=O)[C@H](CCCNC(=N)N)NC(=O)[C@@H](CC(C)C)NC(=O)[C@H]2CCCN2C(=O)[C@H](CCCNC(=N)N)NC(=O)[C@H](Cc2ccc(-c3ccccc3)cc2)NC(=O)[C@H](C(C)C)NC(=O)[C@H](Cc2c[nH]c3ccccc23)NC(=O)[C@H](CC(=O)O)NC(=O)[C@H](Cc2ccc(O)cc2)NC(=O)[C@H](CC(N)=O)NC(=O)CSC[C@@H](C(=O)N[C@@H](C)C(N)=O)NC(=O)[C@H]([C@@H](C)O)NC(=O)[C@H](C(C)C)NC1=O` [Compound 1214] ({CH2CO}-NYDWV[Bip]R[dP][dL]RLVTCA-NH2; thioether N-14) reads 0.05 µM.
